{
  "source": "patent US20250082674A1",
  "about": "“METHODS OF TREATING COPPER METABOLISM-ASSOCIATED DISEASES OR DISORDERS” (priority 2021, published 2025)",
  "key": {"[1]": {"experiment": "Study 301: adverse events in participants who switched from SoC to BC-TTM in the Extension Period", "conditions": "SoC Weeks 0-48 (N = 70), BC-TTM Weeks 49-96 (N = 61)"}, "[2]": {"tested_on": "patients with Wilson disease (WD)", "text": "The UWDRS Part II total score results for this pooled population are presented in Table 16 and FIG. 13 and the UWDRS Part III total score results are in Table 17 and FIG. 14. The UWDRS Part III Functional Subscale (comprised of the items arising from a chair, gait, handwriting and speech) results for this pooled population are presented in Table 18 and FIG. 15."}},
  "note": "Where two headings read alike, the source gives them in different places.",
  "data": [
    {"substance": "Bis-choline tetrathiomolybdate [BC-TTM]", "values": [
      {"measurement": "Musculoskeletal and connective tissue disorders, E events", "setting": "[1]", "value": 7},
      {"measurement": "Musculoskeletal and connective tissue disorders, N participants", "setting": "[1]", "value": 7},
      {"measurement": "Musculoskeletal and connective tissue disorders, participants (%)", "setting": "[1]", "value": 11.5, "unit": "%"},
      {"measurement": "UWDRS Part III (Range 0-175) LSM change from baseline", "setting": "[2]; BC-TTM exposure 4 wks", "value": "−0.83"},
      {"measurement": "UWDRS Part III (Range 0-175) Mean change from baseline", "setting": "[2]; BC-TTM exposure 4 wks", "value": "−0.72"},
      {"measurement": "UWDRS Part III Functional Subscale (Range 0-10) LSM change from baseline", "setting": "[2]; BC-TTM exposure 4 wks", "value": "−0.083"},
      {"measurement": "UWDRS Part III Functional Subscale (Range 0-10) Mean change from baseline", "setting": "[2]; BC-TTM exposure 4 wks", "value": "−0.072"},
      {"measurement": "UWDRS Part III (Range 0-175) LSM change from baseline", "setting": "[2]; BC-TTM exposure 12 wks", "value": "−1.13"},
      {"measurement": "UWDRS Part III (Range 0-175) Mean change from baseline", "setting": "[2]; BC-TTM exposure 12 wks", "value": "−1.11"},
      {"measurement": "UWDRS Part III Functional Subscale (Range 0-10) LSM change from baseline", "setting": "[2]; BC-TTM exposure 12 wks", "value": "−0.141"},
      {"measurement": "UWDRS Part III Functional Subscale (Range 0-10) Mean change from baseline", "setting": "[2]; BC-TTM exposure 12 wks", "value": "−0.137"},
      {"measurement": "UWDRS Part III (Range 0-175) LSM change from baseline", "setting": "[2]; BC-TTM exposure 24 wks", "value": "−1.10"},
      {"measurement": "UWDRS Part III (Range 0-175) Mean change from baseline", "setting": "[2]; BC-TTM exposure 24 wks", "value": "−0.97"},
      {"measurement": "UWDRS Part III Functional Subscale (Range 0-10) LSM change from baseline", "setting": "[2]; BC-TTM exposure 24 wks", "value": "−0.146"},
      {"measurement": "UWDRS Part III Functional Subscale (Range 0-10) Mean change from baseline", "setting": "[2]; BC-TTM exposure 24 wks", "value": "−0.157"},
      {"measurement": "UWDRS Part III (Range 0-175) LSM change from baseline", "setting": "[2]; BC-TTM exposure 36 wks", "value": "−1.85"},
      {"measurement": "UWDRS Part III (Range 0-175) Mean change from baseline", "setting": "[2]; BC-TTM exposure 36 wks", "value": "−2.38"},
      {"measurement": "UWDRS Part III Functional Subscale (Range 0-10) LSM change from baseline", "setting": "[2]; BC-TTM exposure 36 wks", "value": "−0.202"},
      {"measurement": "UWDRS Part III Functional Subscale (Range 0-10) Mean change from baseline", "setting": "[2]; BC-TTM exposure 36 wks", "value": "−0.286"},
      {"measurement": "UWDRS Part III (Range 0-175) LSM change from baseline", "setting": "[2]; BC-TTM exposure 48 wks", "value": "−2.76"},
      {"measurement": "UWDRS Part III (Range 0-175) Mean change from baseline", "setting": "[2]; BC-TTM exposure 48 wks", "value": "−3.37"},
      {"measurement": "UWDRS Part III Functional Subscale (Range 0-10) LSM change from baseline", "setting": "[2]; BC-TTM exposure 48 wks", "value": "−0.285"},
      {"measurement": "UWDRS Part III Functional Subscale (Range 0-10) Mean change from baseline", "setting": "[2]; BC-TTM exposure 48 wks", "value": "−0.345"},
      {"measurement": "UWDRS Part III (Range 0-175) LSM change from baseline", "setting": "[2]; BC-TTM exposure 60 wks", "value": "−3.24"},
      {"measurement": "UWDRS Part III (Range 0-175) Mean change from baseline", "setting": "[2]; BC-TTM exposure 60 wks", "value": "−2.00"},
      {"measurement": "UWDRS Part III Functional Subscale (Range 0-10) LSM change from baseline", "setting": "[2]; BC-TTM exposure 60 wks", "value": "−0.355"},
      {"measurement": "UWDRS Part III Functional Subscale (Range 0-10) Mean change from baseline", "setting": "[2]; BC-TTM exposure 60 wks", "value": "−0.422"},
      {"measurement": "UWDRS Part III (Range 0-175) LSM change from baseline", "setting": "[2]; BC-TTM exposure 72 wks", "value": "−4.43"},
      {"measurement": "UWDRS Part III (Range 0-175) Mean change from baseline", "setting": "[2]; BC-TTM exposure 72 wks", "value": "−4.93"},
      {"measurement": "UWDRS Part III Functional Subscale (Range 0-10) LSM change from baseline", "setting": "[2]; BC-TTM exposure 72 wks", "value": "−0.399"},
      {"measurement": "UWDRS Part III Functional Subscale (Range 0-10) Mean change from baseline", "setting": "[2]; BC-TTM exposure 72 wks", "value": "−0.494"},
      {"measurement": "UWDRS Part III (Range 0-175) LSM change from baseline", "setting": "[2]; BC-TTM exposure 96 wks", "value": "−6.32"},
      {"measurement": "UWDRS Part III (Range 0-175) Mean change from baseline", "setting": "[2]; BC-TTM exposure 96 wks", "value": "−7.95"},
      {"measurement": "UWDRS Part III Functional Subscale (Range 0-10) LSM change from baseline", "setting": "[2]; BC-TTM exposure 96 wks", "value": "−0.607"},
      {"measurement": "UWDRS Part III Functional Subscale (Range 0-10) Mean change from baseline", "setting": "[2]; BC-TTM exposure 96 wks", "value": "−0.900"},
      {"measurement": "UWDRS Part III (Range 0-175) LSM change from baseline", "setting": "[2]; BC-TTM exposure 120 wks", "value": "−6.69"},
      {"measurement": "UWDRS Part III (Range 0-175) Mean change from baseline", "setting": "[2]; BC-TTM exposure 120 wks", "value": "−8.92"},
      {"measurement": "UWDRS Part III Functional Subscale (Range 0-10) LSM change from baseline", "setting": "[2]; BC-TTM exposure 120 wks", "value": "−0.660"},
      {"measurement": "UWDRS Part III Functional Subscale (Range 0-10) Mean change from baseline", "setting": "[2]; BC-TTM exposure 120 wks", "value": "−0.946"},
      {"measurement": "UWDRS Part III (Range 0-175) LSM change from baseline", "setting": "[2]; BC-TTM exposure 144 wks", "value": "−7.70"},
      {"measurement": "UWDRS Part III (Range 0-175) Mean change from baseline", "setting": "[2]; BC-TTM exposure 144 wks", "value": "−9.78"},
      {"measurement": "UWDRS Part III Functional Subscale (Range 0-10) LSM change from baseline", "setting": "[2]; BC-TTM exposure 144 wks", "value": "−0.803"},
      {"measurement": "UWDRS Part III Functional Subscale (Range 0-10) Mean change from baseline", "setting": "[2]; BC-TTM exposure 144 wks", "value": "−1.042"},
      {"measurement": "UWDRS Part III (Range 0-175) LSM change from baseline", "setting": "[2]; BC-TTM exposure 168 wks", "value": "−9.48"},
      {"measurement": "UWDRS Part III (Range 0-175) Mean change from baseline", "setting": "[2]; BC-TTM exposure 168 wks", "value": "−18.08"},
      {"measurement": "UWDRS Part III Functional Subscale (Range 0-10) LSM change from baseline", "setting": "[2]; BC-TTM exposure 168 wks", "value": "−0.903"},
      {"measurement": "UWDRS Part III Functional Subscale (Range 0-10) Mean change from baseline", "setting": "[2]; BC-TTM exposure 168 wks", "value": "−1.841"},
      {"measurement": "UWDRS Part III (Range 0-175) LSM change from baseline", "setting": "[2]; BC-TTM exposure 192 wks", "value": "−6.13"},
      {"measurement": "UWDRS Part III (Range 0-175) Mean change from baseline", "setting": "[2]; BC-TTM exposure 192 wks", "value": "−12.65"},
      {"measurement": "UWDRS Part III Functional Subscale (Range 0-10) LSM change from baseline", "setting": "[2]; BC-TTM exposure 192 wks", "value": "−0.437"},
      {"measurement": "UWDRS Part III Functional Subscale (Range 0-10) Mean change from baseline", "setting": "[2]; BC-TTM exposure 192 wks", "value": "−1.250"},
      {"measurement": "UWDRS Part III (Range 0-175) LSM change from baseline", "setting": "[2]; BC-TTM exposure 216 wks", "value": "−6.52"},
      {"measurement": "UWDRS Part III (Range 0-175) Mean change from baseline", "setting": "[2]; BC-TTM exposure 216 wks", "value": "−16.17"},
      {"measurement": "UWDRS Part III Functional Subscale (Range 0-10) LSM change from baseline", "setting": "[2]; BC-TTM exposure 216 wks", "value": "−0.430"},
      {"measurement": "UWDRS Part III Functional Subscale (Range 0-10) Mean change from baseline", "setting": "[2]; BC-TTM exposure 216 wks", "value": "−1.519"},
      {"measurement": "UWDRS Part III (Range 0-175) LSM change from baseline", "setting": "[2]; BC-TTM exposure 240 wks", "value": "−6.49"}
    ]}
  ]
}
